Experimental data taken from the NIST ThermoML archive (doi:10.1016/j.jct.2017.03.032).

Test: wn = mass fraction of the nth substance listed
Settings: Gas, Burnett expansion method

F/C=C/C(F)(F)F [trans-1,3,3,3-tetrafluoropropene] + CC(C)C
Settings | mass density [kg/m3]
280.17 K, 167.4 kPa, w1 = 0.7 | 6.7132
280.17 K, 218.3 kPa, w1 = 0.7 | 8.9087
280.18 K, 165.3 kPa, w1 = 0.65 | 6.4038
280.18 K, 215.5 kPa, w1 = 0.65 | 8.4982
280.18 K, 229.9 kPa, w1 = 0.8 | 10.1496
285.05 K, 159.8 kPa, w1 = 0.8 | 6.7596
285.06 K, 208.9 kPa, w1 = 0.8 | 8.9702
285.06 K, 266.4 kPa, w1 = 0.75 | 11.209
285.06 K, 272 kPa, w1 = 0.8 | 11.904
285.06 K, 290 kPa, w1 = 0.9 | 13.8805
285.08 K, 149.5 kPa, w1 = 0.65 | 5.6292
285.08 K, 195.5 kPa, w1 = 0.65 | 7.4702
285.08 K, 254.6 kPa, w1 = 0.65 | 9.9134
285.09 K, 151.9 kPa, w1 = 0.7 | 5.9363
285.09 K, 198.7 kPa, w1 = 0.7 | 7.8779
285.09 K, 258.7 kPa, w1 = 0.7 | 10.4543
290.16 K, 140.3 kPa, w1 = 0.75 | 5.5569
290.16 K, 183.7 kPa, w1 = 0.75 | 7.3743
290.16 K, 234.4 kPa, w1 = 0.7 | 9.1876
290.16 K, 239.9 kPa, w1 = 0.75 | 9.7861
290.17 K, 153.8 kPa, w1 = 0.9 | 6.9178
290.17 K, 201.4 kPa, w1 = 0.9 | 9.1804
290.17 K, 262.6 kPa, w1 = 0.9 | 12.1828
290.17 K, 304.8 kPa, w1 = 0.7 | 12.1924
290.17 K, 311.8 kPa, w1 = 0.75 | 12.9866
290.17 K, 340.7 kPa, w1 = 0.9 | 16.1673
290.18 K, 176 kPa, w1 = 0.65 | 6.5292
290.18 K, 179.5 kPa, w1 = 0.7 | 6.9229
290.18 K, 229.9 kPa, w1 = 0.65 | 8.6646
290.18 K, 299.2 kPa, w1 = 0.65 | 11.4985
290.19 K, 148.1 kPa, w1 = 0.85 | 6.3743
290.19 K, 193.9 kPa, w1 = 0.85 | 8.459
290.19 K, 252.9 kPa, w1 = 0.85 | 11.2256
290.19 K, 328.4 kPa, w1 = 0.85 | 14.8972
290.2 K, 188.8 kPa, w1 = 0.8 | 7.8842
290.2 K, 246.5 kPa, w1 = 0.8 | 10.4628
290.2 K, 320.1 kPa, w1 = 0.8 | 13.8847
295.18 K, 138.3 kPa, w1 = 0.9 | 6.0742
295.18 K, 181.5 kPa, w1 = 0.9 | 8.0608
295.18 K, 198.3 kPa, w1 = 0.65 | 7.2638
295.18 K, 258.7 kPa, w1 = 0.65 | 9.6394
295.18 K, 308.8 kPa, w1 = 0.9 | 14.1958
295.18 K, 336.3 kPa, w1 = 0.65 | 12.7921
295.18 K, 399.6 kPa, w1 = 0.9 | 18.8389
295.19 K, 151.4 kPa, w1 = 0.65 | 5.4735
295.19 K, 237.2 kPa, w1 = 0.9 | 10.6968
295.2 K, 160.8 kPa, w1 = 0.7 | 6.0421
295.2 K, 173.7 kPa, w1 = 0.85 | 7.366
295.2 K, 210.4 kPa, w1 = 0.7 | 8.0182
295.2 K, 227.4 kPa, w1 = 0.85 | 9.7751
295.2 K, 274.6 kPa, w1 = 0.7 | 10.6407
295.2 K, 296.4 kPa, w1 = 0.85 | 12.9722
295.2 K, 356.2 kPa, w1 = 0.7 | 14.1209
295.2 K, 384.1 kPa, w1 = 0.85 | 17.2147
295.21 K, 165.5 kPa, w1 = 0.75 | 6.4713
295.21 K, 216.7 kPa, w1 = 0.75 | 8.5879
295.21 K, 282.6 kPa, w1 = 0.75 | 11.3966
295.21 K, 366.4 kPa, w1 = 0.75 | 15.1241
295.22 K, 169.2 kPa, w1 = 0.8 | 6.8878
295.22 K, 221.5 kPa, w1 = 0.8 | 9.1405
295.22 K, 288.6 kPa, w1 = 0.8 | 12.13
295.22 K, 374 kPa, w1 = 0.8 | 16.0973
300.14 K, 198.5 kPa, w1 = 0.8 | 7.9893
300.14 K, 259.5 kPa, w1 = 0.8 | 10.6023
300.14 K, 337.5 kPa, w1 = 0.8 | 14.0697
300.16 K, 151.4 kPa, w1 = 0.8 | 6.02
300.16 K, 156.6 kPa, w1 = 0.85 | 6.5188
300.16 K, 205.4 kPa, w1 = 0.85 | 8.6508
300.16 K, 268.4 kPa, w1 = 0.85 | 11.4801
300.16 K, 348.9 kPa, w1 = 0.85 | 15.2347
300.16 K, 448.5 kPa, w1 = 0.85 | 20.2174
300.17 K, 466.4 kPa, w1 = 0.9 | 21.9125
300.18 K, 162.8 kPa, w1 = 0.9 | 7.0652
300.18 K, 213.3 kPa, w1 = 0.9 | 9.3759
300.18 K, 278.5 kPa, w1 = 0.9 | 12.4424
300.18 K, 361.8 kPa, w1 = 0.9 | 16.5116
300.19 K, 141.1 kPa, w1 = 0.65 | 4.9939
300.19 K, 147.4 kPa, w1 = 0.75 | 5.6247
300.19 K, 185.2 kPa, w1 = 0.65 | 6.6273
300.19 K, 193.2 kPa, w1 = 0.75 | 7.4643
300.19 K, 242.2 kPa, w1 = 0.65 | 8.7948
300.19 K, 252.7 kPa, w1 = 0.75 | 9.9055
300.19 K, 315.5 kPa, w1 = 0.65 | 11.6712
300.19 K, 328.9 kPa, w1 = 0.75 | 13.1452
300.19 K, 408.2 kPa, w1 = 0.65 | 15.4884
300.19 K, 425.4 kPa, w1 = 0.75 | 17.4445
300.21 K, 143.9 kPa, w1 = 0.7 | 5.2837
300.21 K, 188.7 kPa, w1 = 0.7 | 7.0118
300.21 K, 246.8 kPa, w1 = 0.7 | 9.3051
300.21 K, 321.3 kPa, w1 = 0.7 | 12.3484
300.21 K, 415.8 kPa, w1 = 0.7 | 16.3872
305.17 K, 185.5 kPa, w1 = 0.8 | 7.2959
305.17 K, 243 kPa, w1 = 0.8 | 9.6822
305.17 K, 316.9 kPa, w1 = 0.8 | 12.8488
305.17 K, 410.9 kPa, w1 = 0.8 | 17.0511
305.18 K, 145.2 kPa, w1 = 0.85 | 5.912
305.18 K, 169.9 kPa, w1 = 0.7 | 6.1677
305.18 K, 189.6 kPa, w1 = 0.85 | 7.8456
305.18 K, 249.6 kPa, w1 = 0.85 | 10.4115
305.18 K, 290.8 kPa, w1 = 0.7 | 10.8618
305.18 K, 325.5 kPa, w1 = 0.85 | 13.8167
305.18 K, 377.9 kPa, w1 = 0.7 | 14.4143
305.18 K, 420.8 kPa, w1 = 0.85 | 18.3356
305.18 K, 536.7 kPa, w1 = 0.85 | 24.3325
305.19 K, 181.1 kPa, w1 = 0.75 | 6.8373
305.19 K, 222.7 kPa, w1 = 0.7 | 8.1848
305.19 K, 237.2 kPa, w1 = 0.75 | 9.0735
305.19 K, 401.5 kPa, w1 = 0.75 | 15.9791
305.19 K, 487 kPa, w1 = 0.7 | 19.1285
305.2 K, 162.4 kPa, w1 = 0.65 | 5.6789
305.2 K, 212.9 kPa, w1 = 0.65 | 7.5363
305.2 K, 278.3 kPa, w1 = 0.65 | 10.001
305.2 K, 309.5 kPa, w1 = 0.75 | 12.0406
305.2 K, 361.8 kPa, w1 = 0.65 | 13.2721
305.2 K, 465.9 kPa, w1 = 0.65 | 17.6129
305.21 K, 150 kPa, w1 = 0.9 | 6.375
305.21 K, 196.9 kPa, w1 = 0.9 | 8.4599
305.21 K, 257.6 kPa, w1 = 0.9 | 11.2269
305.21 K, 335.6 kPa, w1 = 0.9 | 14.8987
305.21 K, 434.3 kPa, w1 = 0.9 | 19.7715
305.21 K, 557 kPa, w1 = 0.9 | 26.2379
310.09 K, 153.4 kPa, w1 = 0.7 | 5.4721
310.09 K, 569.4 kPa, w1 = 0.7 | 22.5217
310.1 K, 157.4 kPa, w1 = 0.8 | 6.0902
310.1 K, 201.9 kPa, w1 = 0.7 | 7.2614
310.1 K, 207.9 kPa, w1 = 0.8 | 8.082
310.1 K, 271.8 kPa, w1 = 0.75 | 10.3201
310.1 K, 272 kPa, w1 = 0.8 | 10.7254
310.1 K, 344.7 kPa, w1 = 0.7 | 12.7882
310.1 K, 354.2 kPa, w1 = 0.75 | 13.6955
310.1 K, 354.6 kPa, w1 = 0.8 | 14.233
310.1 K, 458.2 kPa, w1 = 0.8 | 18.8881
310.1 K, 459.6 kPa, w1 = 0.75 | 18.1746
310.1 K, 583 kPa, w1 = 0.75 | 24.1187
310.1 K, 583.3 kPa, w1 = 0.8 | 25.0653
310.11 K, 158.1 kPa, w1 = 0.75 | 5.86
310.11 K, 207.6 kPa, w1 = 0.75 | 7.7765
310.11 K, 446.6 kPa, w1 = 0.7 | 16.9702
310.12 K, 264.5 kPa, w1 = 0.7 | 9.6359
310.12 K, 493.5 kPa, w1 = 0.9 | 22.3926
310.13 K, 166 kPa, w1 = 0.85 | 6.6824
310.13 K, 172 kPa, w1 = 0.9 | 7.22
310.13 K, 225.6 kPa, w1 = 0.9 | 9.5815
310.13 K, 294.9 kPa, w1 = 0.9 | 12.7151
310.13 K, 337.1 kPa, w1 = 0.65 | 12.0235
310.13 K, 372.9 kPa, w1 = 0.85 | 15.6171
310.13 K, 383.7 kPa, w1 = 0.9 | 16.8736
310.13 K, 436.3 kPa, w1 = 0.65 | 15.9559
310.13 K, 556 kPa, w1 = 0.65 | 21.1744
310.13 K, 607.5 kPa, w1 = 0.85 | 27.5031
310.14 K, 196.8 kPa, w1 = 0.65 | 6.8271
310.14 K, 216.8 kPa, w1 = 0.85 | 8.8678
310.14 K, 258.2 kPa, w1 = 0.65 | 9.0598
310.14 K, 285 kPa, w1 = 0.85 | 11.7678
310.14 K, 479.8 kPa, w1 = 0.85 | 20.7246
310.15 K, 149.8 kPa, w1 = 0.65 | 5.1443
